Results as given in US11168074B2, “Potassium channel inhibitors” (ACESION PHARMA ApS, priority 2017, dated 2021).

Target: T1, human SK3 channel (hKCa2.3) (Homo sapiens, UniProt Q9UGI6)
T1 construct: expressed in transfected cells
Assay: Automated patch clamping (QPatch 16 HT whole cell patch-clamp)
Assay type: cell-based
Settings: HEK-293 cells stably expressing hKCa2.3; free calcium 400 nM; effects normalized to N-methyl bicuculline; read-out: IC50 in the Automated patch clamping assay (concentration needed to inhibit half of the SK channel activity)
Description: Automated whole cell patch-clamp recordings were performed using a QPatch 16 HT system and single-hole Qplates (Biolin Scientific, Sophion, Denmark) on HEK-293 cells stably expressing the human SK3 channel (hKCa2.3). Cells were cultured and prepared for experiments using normal cell culturing procedures. A total of 4-5 million cells were used per experiment. The Qpatch automatically generates giga sealing, whole-cell formation, compound application and recording of current. hKCa2.3 currents were recorded in symmetrical K^+ solutions, with an intracellular solution consisting of in mM: KCl 108; KOH/EGTA (ethylene glycol-bis(2-aminoethylether)-N,N,N′,N′-tetraacetic acid) 31.25/10; CaCl2 8.1; MgCl2 1.2; HEPES (2-[4-(2-hydroxyethyl)piperazin-1-yl]ethanesulfonic acid) 10; KOH 15, pH adjusted to pH=7.2 with HCl. The free calcium concentration was calculated to 400 nM. The extracellular solution consisted of in mM: KCl 150; CaCl2 0.1; MgCl2 3; HEPES 10; Glucose 10, pH=7.4 with KOH. The cells were held at 0 mV and hKCa2.3 currents were elicited by a linear voltage ramp from −80 mV to +80 mV (200 ms in duration) applied every 5th second. The compound application protocol consisted of 12 recording periods lasting from 50-200 s: 1) Baseline recordings in extracellular solution; 2) Application of the positive control N-methyl bicuculline (100 μM), which is characterized by full efficacy, fast on- and off-rate; 3-4) Wash-out; 5-9) Increasing concentrations of test compound to establish an IC50 value; 10-11) Wash-out; 12) positive control with compound NS8593 (N-[(1R)-1,2,3,4-tetrahydro-1-naphthalenyl]-1H-benzimidazol-2-amine) (1 μM). Data were sampled at 10 kHz, 4th order Bessel filter, cut-off frequency 3 kHz. Currents were compensated for run-down. Potency was quantified as the concentration needed to inhibit half of the SK channel activity and reported as an IC50 value. All effects of compounds of the present invention as tested were normalized to the observed inhibitory effect of N-methyl bicuculline.

Row | Structure (SMILES) | IC50 [µM]
1 | CC(=O)NCCC(Nc1nc2ccccc2[nH]1)c1cccc(OC(F)(F)F)c1 (single isomer, unassigned; (-)) [Example 22a, (−)-N-{3-[(1H-1,3-benzodiazol-2-yl)amino]-3-[3-(trifluoromethoxy)phenyl]propyl}acetamide] | < 10
2 | O=C(NCC(Nc1nc2ccccc2[nH]1)c1cccc(C(F)(F)F)c1)c1cccc(F)c1 (stereo not drawn) [Example 9, N-{2-[(1H-1,3-benzodiazol-2-yl)amino]-2-[3-(trifluoromethyl)phenyl]ethyl}-3-fluorobenzamide] | < 10
3 | CC(=O)NCCC(Nc1nc2ccccc2[nH]1)c1cccc(C(F)(F)F)c1 (single isomer, unassigned; (-)) [Example 14a, (−)-N-{3-[(1H-1,3-benzodiazol-2-yl)amino]-3-[3-(trifluoromethyl)phenyl]propyl}acetamide] | < 10
4 | O=C(NCC(Nc1nc2ccccc2[nH]1)c1cccc(C(F)(F)F)c1)C1CCOCC1 (stereo not drawn) [Example 8, N-{2-[(1H-1,3-benzodiazol-2-yl)amino]-2-[3-(trifluoromethyl)phenyl]ethyl}oxane-4-carboxamide] | < 10
5 | CC(=O)NCCC(Nc1nc2ccccc2[nH]1)c1cccc(C(F)(F)F)c1 (stereo not drawn) [Example 14, N-{3-[(1H-1,3-benzodiazol-2-yl)amino]-3-[3-(trifluoromethyl)phenyl]propyl}acetamide] | < 10
6 | O=C1CCCN1CC(Nc1nc2ccccc2[nH]1)c1cccc(C(F)(F)F)c1 (stereo not drawn) [Example 11, 1-{2-[(1H-1,3-benzodiazol-2-yl)amino]-2-[3-(trifluoromethyl)phenyl]ethyl}pyrrolidin-2-one] | < 10
7 | O=C(NCC(Nc1nc2ccccc2[nH]1)c1cccc(C(F)(F)F)c1)c1ccccn1 (stereo not drawn) [Example 6, N-{2-[(1H-1,3-benzodiazol-2-yl)amino]-2-[3-(trifluoromethyl)phenyl]ethyl}pyridine-2-carboxamide; trifluoroacetic acid] | < 10
8 | O=C(NCC(Nc1nc2ccccc2[nH]1)c1cccc(C(F)(F)F)c1)c1ccncn1 (stereo not drawn) [Example 5, N-{2-[(1H-1,3-benzodiazol-2-yl)amino]-2-[3-(trifluoromethyl)phenyl]ethyl}pyrimidine-4-carboxamide; trifluoroacetic acid] | < 10
9 | CC(=O)NC(C)CC(Nc1nc2ccccc2[nH]1)c1cccc(C(F)(F)F)c1 (stereo not drawn) [Example 17, N-{4-[(1H-1,3-benzodiazol-2-yl)amino]-4-[3-(trifluoromethyl)phenyl]butan-2-yl}acetamide; trifluoroacetic acid] | < 10
10 | CC(=O)NCCC(Nc1nc2ccccc2[nH]1)c1cccc(OC(F)(F)F)c1 (stereo not drawn) [Example 22, N-{3-[(1H-1,3-benzodiazol-2-yl)amino]-3-[3-(trifluoromethoxy)phenyl]propyl}acetamide] | < 10
11 | O=C(NCC(Nc1nc2ccccc2[nH]1)c1cccc(C(F)(F)F)c1)C1CCC1 (stereo not drawn) [Example 2, N-{2-[(1H-1,3-benzodiazol-2-yl)amino]-2-[3-(trifluoromethyl)phenyl]ethyl}cyclobutanecarboxamide] | < 10
12 | O=C(CO)NC[C@H](Nc1nc2ccccc2[nH]1)c1cccc(C(F)(F)F)c1 [Example 13, N-[(2R)-2-[(1H-1,3-benzodiazol-2-yl)amino]-2-[3-(trifluoromethyl)phenyl]ethyl]-2-hydroxyacetamide] | < 10
13 | N#Cc1cccc(C(=O)NCC(Nc2nc3ccccc3[nH]2)c2cccc(C(F)(F)F)c2)c1 (stereo not drawn) [Example 7, N-{2-[(1H-1,3-benzodiazol-2-yl)amino]-2-[3-(trifluoromethyl)phenyl]ethyl}-3-cyanobenzamide] | < 10
14 | O=C(NCC(Nc1nc2ccccc2[nH]1)c1cccc(C(F)(F)F)c1)c1ncon1 (stereo not drawn) [Example 4, N-{2-[(1H-1,3-benzodiazol-2-yl)amino]-2-[3-(trifluoromethyl)phenyl]ethyl}-1,2,4-oxadiazole-3-carboxamide; trifluoroacetic acid] | < 10
15 | O=C(NCCC(Nc1nc2c(CO)cccc2[nH]1)c1cccc(C(F)(F)F)c1)c1ccon1 (stereo not drawn) [Example 15, N-(3-{[4-(hydroxymethyl)-1H-1,3-benzodiazol-2-yl]amino}-3-[3-(trifluoromethyl)phenyl]propyl)-1,2-oxazole-3-carboxamide] | < 10
16 | COCC(=O)NC[C@H](Nc1nc2ccccc2[nH]1)c1cccc(C(F)(F)F)c1 [Example 12, N-[(2R)-2-[(1H-1,3-benzodiazol-2-yl)amino]-2-[3-(trifluoromethyl)phenyl]ethyl]-2-methoxyacetamide] | < 10
17 | CC(=O)NCCCC(Nc1nc2ccccc2[nH]1)c1cccc(C(F)(F)F)c1 (single isomer, unassigned; (-)) [Example 19a, (−)-N-{4-[(1H-1,3-benzodiazol-2-yl)amino]-4-[3-(trifluoromethyl)phenyl]butyl}acetamide] | < 10
18 | CCC(=O)NCC(Nc1nc2ccccc2[nH]1)c1cccc(C(F)(F)F)c1 (single isomer, unassigned) [Example 10a, N-{2-[(1H-1,3-benzodiazol-2-yl)amino]-2-[3-(trifluoromethyl)phenyl]ethyl}propanamide] | < 10
19 | CC(=O)NCCCC(Nc1nc2ccccc2[nH]1)c1cccc(C(F)(F)F)c1 (stereo not drawn) [Example 19, N-{4-[(1H-1,3-benzodiazol-2-yl)amino]-4-[3-(trifluoromethyl)phenyl]butyl}acetamide] | < 10
20 | CC(=O)NCCCC(Nc1nc2cc(F)ccc2[nH]1)c1cccc(C(F)(F)F)c1 (stereo not drawn) [Example 20, N-{4-[(5-fluoro-1H-1,3-benzodiazol-2-yl)amino]-4-[3-(trifluoromethyl)phenyl]butyl}acetamide] | < 10
21 | CC(=O)NCCC(C)(Nc1nc2ccccc2[nH]1)c1cccc(C(F)(F)F)c1 (stereo not drawn) [Example 21, N-{3-[(1H-1,3-benzodiazol-2-yl)amino]-3-[3-(trifluoromethyl)phenyl]butyl}acetamide] | < 10
22 | CCC(=O)NCC(Nc1nc2ccccc2[nH]1)c1cccc(C(F)(F)F)c1 (stereo not drawn) [Example 10, N-{2-[(1H-1,3-benzodiazol-2-yl)amino]-2-[3-(trifluoromethyl)phenyl]ethyl}propanamide] | < 10
23 | O=C(NCC(Nc1nc2ccccc2[nH]1)c1cccc(C(F)(F)F)c1)c1ccon1 (stereo not drawn) [Example 1, N-{2-[(1H-1,3-benzodiazol-2-yl)amino]-2-[3-(trifluoromethyl)phenyl]ethyl}-1,2-oxazole-3-carboxamide] | < 10
24 | O=C(NCCC(Nc1nc2ccccc2[nH]1)c1cccc(C(F)(F)F)c1)C(F)(F)F (stereo not drawn) [Example 16, N-{3-[(1H-1,3-benzodiazol-2-yl)amino]-3-[3-(trifluoromethyl)phenyl]propyl}-2,2,2-trifluoroacetamide; formic acid] | < 10
25 | O=C(NCC(Nc1nc2ccccc2[nH]1)c1cccc(C(F)(F)F)c1)C1CC1 (stereo not drawn) [Example 3, N-{2-[(1H-1,3-benzodiazol-2-yl)amino]-2-[3-(trifluoromethyl)phenyl]ethyl}cyclopropanecarboxamide] | < 10
26 | CC(=O)N(C)CCC(Nc1nc2ccccc2[nH]1)c1cccc(C(F)(F)F)c1 (stereo not drawn) [Example 18, N-{3-[(1H-1,3-benzodiazol-2-yl)amino]-3-[3-(trifluoromethyl)phenyl]propyl}-N-methylacetamide] | < 10
27 | CC(=O)N(C)CCC(Nc1nc2ccccc2[nH]1)c1cccc(C(F)(F)F)c1 (single isomer, unassigned; (-)) [Example 18a, (−)-N-{3-[(1H-1,3-benzodiazol-2-yl)amino]-3-[3-(trifluoromethyl)phenyl]propyl}-N-methylacetamide] | < 10
